Here are results for two compounds from US12636253B2, “Modified release compositions of nafamostat and methods of using same” (Ensysce Biosciences Inc., priority 2021, dated 2026).

Read-outs that look alike come from different tables or passages of the source.

For data set [1] the following is noted: cited from earlier work.
Data set [2] can be described thus: Effect of nafamostat on plasma oxycodone after oral KC-8 in rats. The data set is classed as in vivo. As to conditions: nafamostat co-administered with an oxycodone or hydromorphone derivative. Here is the method:
The drug nafamostat mesylate was added to the formulations containing the KC-8 oxycodone-derivative. In the examples described herein, the terms “nafamostat mesylate” and “nafamostat” are used interchangeably.
Formulations containing both KC-8 and optionally nafamostat were administered orally to rats. The KC-8 dose was 5 mg/kg and the nafamostat concentration was 0, 0.1, 0.5, or 1 mg/kg. Plasma concentrations of active oxycodone were measured at various time intervals over 24 hours after administration.
In contrast, additional nafamostat reduced the maximum oxycodone concentration to a peak of about 0.75 ng/ml at about 5 hours. The error bars represent one standard deviation.
In particular, the rats received 50 mg/kg of KC-8 and 0, 1, 5, or 10 mg/kg of nafamostat. With zero nafamostat, blood plasma concentration experienced a maximum of about 22 ng/ml at about 2 hours, wherein the concentration rapidly descended thereafter. In alignment with the data of FIG. 2, higher concentrations of nafamostat reduced the peak concentration to about 3 ng/ml at about 8 hours.

Data set [3] in a line: Blood hydromorphone after 1, 3, 6 or 10 pills of PF329 with or without nafamostat in rats. As to conditions: rats, 1, 3, 6 or 10 PF329 pills containing nafamostat (FIG. 5). The data set is classed as in vivo. The source says:
The rat experiments were repeated with a derivative of hydromorphone (referred to herein as PF329), which is another known pain medication. FIGS. 4 and 5 show the blood concentration of active hydromorphone (HM) after the administration of 1, 3, 6, or 10 pills, either without or with nafamostat.

On to `COc1ccc2c3c1O[C@H]1C(OC(=O)N(C)CC(C)(C)CNC(=O)[C@H](CCCNC(=N)N)NC(=O)CNC(=O)CC(=O)O)=CC[C@@]4(O)[C@@H](C2)N(C)CC[C@]314` [KC-8, N-1-[3-(oxycodone-6-enol-carbonyl-methyl-amino)-2,2-dimethyl-propylamine]-arginine-glycine-malonic acid], for which the safety and tolerability entry in data set [1] (previous SAD study, doses of up to 200 mg KC-8 (80 mg oxycodone)) was “safe and well tolerated”.
For `N=C(N)c1ccc2cc(OC(=O)c3ccc(N=C(N)N)cc3)ccc2c1` [nafamostat, 6-carbamimidoylnaphthalen-2-yl 4-(diaminomethyleneamino)benzoate], in data set [1] (200 mg nafamostat, healthy volunteer SAD data), the safety and tolerability result was “safe and well tolerated”. Further, the “effect on maximum concentration of active drug in blood plasma” value in data set [2] is recorded as “significantly reduced the maximum concentration of active drug in blood plasma”. Moreover, in data set [3], the “change of hydromorphone blood concentration on administering more pills” value was “little increase”.
